Test results reported in patent US10780090B2, “Heteroaryl compounds useful as inhibitors of SUMO activating enzyme” (Millennium Pharmaceuticals, Inc., priority 2014, dated 2020).
Counter-ions that a name gives are not always drawn.

Target: recombinant human SAE enzyme (Homo sapiens (Human), UniProt Q9UBT2)
Assay: SAE HTRF enzyme assay
Type: biochemical
Settings: for inhibition at 0.111 µM: read-out: Percent Inhibition
Method: Example 215: SAE HTRF enzyme assay
The SAE enzymatic reaction totals 50 μl and contains 50 mM HEPES Hemisodium (pH 7.5), 0.05% BSA, 5 mM MgCl2, 0.5 μM ATP, 250 μM GSH, 0.01 μM Ubc9-GST, 0.125 μM Sumo-Flag and 0.11 nM recombinant human SAE enzyme. The enzymatic reaction mixture, with and without inhibitor, Is incubated at 24° C. for 105 min in a 384-well plate before termination with […] of Stop/Detection buffer (0.1M HEPES Hemisodium pH 7.5, 0.05% Tween20, 20 mM EDTA, 410 mM KF, 0.53 nM Europium-Cryptate labeled monoclonal anti-Flag M2 Antibody (CisBio International) and 8.125 μg/ml PHYCOLINK goat anti-GST allophycocyanin (XL-APC) antibody (Prozyme)). After incubation for 2 hours at 24° C., quantification of FRET is performed on the Pherostar™ (BMG Labtech). Percentage inhibition values at a single concentration or enzyme inhibition (IC50) values are determined from those curves. One skilled in the art will appreciate that the values generated either as percentage inhibition at a single concentration or IC50 values are subject to experimental variation.

[1] = SAE inhibition at compound concentration 0.111 μM
[2] = SAE inhibition, class symbols, legend in nM

Chain of recombinant human SAE enzyme (Q9UBT2 whole entry): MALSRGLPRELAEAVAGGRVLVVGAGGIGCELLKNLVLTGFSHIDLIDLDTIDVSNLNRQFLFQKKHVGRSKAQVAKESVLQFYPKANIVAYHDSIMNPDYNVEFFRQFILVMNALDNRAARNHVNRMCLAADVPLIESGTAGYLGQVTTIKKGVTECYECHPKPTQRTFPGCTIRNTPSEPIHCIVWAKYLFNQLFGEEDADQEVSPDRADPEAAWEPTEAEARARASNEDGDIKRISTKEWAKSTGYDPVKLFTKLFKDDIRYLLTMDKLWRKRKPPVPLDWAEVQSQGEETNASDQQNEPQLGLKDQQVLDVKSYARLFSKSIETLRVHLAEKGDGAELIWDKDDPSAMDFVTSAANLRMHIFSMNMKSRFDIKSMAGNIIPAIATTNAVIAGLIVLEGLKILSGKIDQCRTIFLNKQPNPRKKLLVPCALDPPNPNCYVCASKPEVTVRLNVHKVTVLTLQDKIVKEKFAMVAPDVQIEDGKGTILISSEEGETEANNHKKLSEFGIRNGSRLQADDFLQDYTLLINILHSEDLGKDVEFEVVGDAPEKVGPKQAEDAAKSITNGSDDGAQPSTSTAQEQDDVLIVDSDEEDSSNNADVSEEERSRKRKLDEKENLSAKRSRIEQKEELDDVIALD
Chain of recombinant human SAE enzyme (Q9UBE0 whole entry partner): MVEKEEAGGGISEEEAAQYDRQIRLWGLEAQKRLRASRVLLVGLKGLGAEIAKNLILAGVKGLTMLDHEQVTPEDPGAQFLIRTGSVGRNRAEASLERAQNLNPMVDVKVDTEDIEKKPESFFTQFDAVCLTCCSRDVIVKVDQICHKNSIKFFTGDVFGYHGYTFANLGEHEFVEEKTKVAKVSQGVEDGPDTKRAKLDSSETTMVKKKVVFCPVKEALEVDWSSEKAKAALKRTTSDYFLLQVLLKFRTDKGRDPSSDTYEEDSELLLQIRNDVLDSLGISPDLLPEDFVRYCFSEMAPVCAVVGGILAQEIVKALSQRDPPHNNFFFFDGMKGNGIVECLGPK

With `NS(=O)(=O)OC[C@H]1C[C@@H](Nc2ncncc2C(=O)c2cc([C@@H]3OCCc4ccc(F)cc43)c(Cl)s2)C[C@@H]1O` (single isomer, unassigned) [I-294a, [(1R,2S,4R)-4-{[5-({5-chloro-4-[(1R)-7-fluoro-3,4-dihydro-1H-isochromen-1-yl]-2-thienyl}carbonyl)pyrimidin-4-yl]amino}-2-hydroxycyclopentyl]methyl sulfamate or [(1R,2S,4R)-4-{[5-({5-chloro-4-[(1S)-7-fluoro-3,4-dihydro-1H-isochromen-1-yl]-2-thienyl}carbonyl)pyrimidin-4-yl]amino}-2-hydroxycyclopentyl]methyl sulfamate] the “Percent Inhibition” value [1] was 84% and the IC50 [2] was 10 to 100 nM.
In the case of `NS(=O)(=O)OC[C@H]1C[C@@H](Nc2ncncc2C(=O)c2cc([C@H](O)c3cccc(Cl)c3F)c(Cl)s2)C[C@@H]1O` (mixture of isomers) [I-40, [(1R,2S,4R)-4-{[5-({5-chloro-4-[(R)-(3-chloro-2-fluorophenyl)(hydroxy)methyl]-2-thienyl}carbonyl)pyrimidin-4-yl]amino}-2-hydroxycyclopentyl]methyl sulfamate and [(1R,2S,4R)-4-{[5-({5-chloro-4-[(S)-(3-chloro-2-fluorophenyl)(hydroxy)methyl]-2-thienyl}carbonyl)pyrimidin-4-yl]amino}-2-hydroxycyclopentyl]methyl sulfamate], the “Percent Inhibition” value (Concentration 0.111 μM) is reported as 96 and the IC50 (class symbols A/B/C) is reported as under 10 nM.
Work on `Cc1ccccc1OCc1csc(C(=O)c2cncnc2N[C@@H]2C[C@H](COS(N)(=O)=O)[C@@H](O)C2)c1` [I-131, [(1R,2S,4R)-2-hydroxy-4-{[5-({4-[(2-methylphenoxy)methyl]-2-thienyl}carbonyl)pyrimidin-4-yl]amino}cyclopentyl]methyl sulfamate] yielded an inhibition at 0.111 µM (Concentration 0.111 μM) of 96% and an IC50 (class symbols A/B/C) of under 10 nM.
For `NS(=O)(=O)OC[C@H]1C[C@@H](Nc2ncncc2C(=O)c2cc([C@@H]3NCCc4ccc(Br)cc43)c(Cl)s2)C[C@@H]1O` (single isomer, unassigned) [I-251a, [(1R,2S,4R)-4-{[5-({4-[(1R)-7-bromo-1,2,3,4-tetrahydroisoquinolin-1-yl]-5-chloro-2-thienyl}carbonyl)pyrimidin-4-yl]amino}-2-hydroxycyclopentyl]methyl sulfamate or [(1R,2S,4R)-4-{([5-({4-[(1S)-7-bromo-1,2,3,4-tetrahydroisoquinolin-1-yl]-5-chloro-2-thienyl}carbonyl)pyrimidin-4-yl]amino}-2-hydroxycyclopentyl]methyl sulfamate], the “Percent Inhibition” value (Concentration 0.111 μM) was 100 and the IC50 (class symbols A/B/C) was under 10 nM.
`NS(=O)(=O)OC[C@H]1C[C@@H](Nc2ncncc2C(=O)c2cc(Cc3cccc(Cl)c3)co2)C[C@@H]1O` [I-79, [(1R,2S,4R)-4-({5-[4-(3-chlorobenzyl)-2-furoyl]pyrimidin-4-yl}amino)-2-hydroxycyclopentyl]methyl sulfamate] gave an inhibition at 0.111 µM (Concentration 0.111 μM) of 97%.
For `Cc1sc(C(=O)c2cncnc2N[C@@H]2C[C@H](COS(N)(=O)=O)[C@@H](O)C2)cc1[C@@H]1OCCc2ccc(Cl)nc21` (mixture of isomers) [I-286, [(1R,2S,4R)-4-{[5-({4-[(8S)-2-chloro-5,8-dihydro-6H-pyrano[3,4-b]pyridin-8-yl]-5-methyl-2-thienyl}carbonyl)pyrimidin-4-yl]amino}-2-hydroxycyclopentyl]methyl sulfamate and [(1R,2S,4R)-4-{[5-({4-[(8R)-2-chloro-5,8-dihydro-6H-pyrano[3,4-b]pyridin-8-yl]-5-methyl-2-thienyl}carbonyl)pyrimidin-4-yl]amino}-2-hydroxycyclopentyl]methyl sulfamate], the “Percent Inhibition” value [1] was 99% and the IC50 [2] was under 10 nM.
For `CC(O)(c1cccc(Cl)c1)c1cc(C(=O)c2cncnc2N[C@@H]2C[C@H](COS(N)(=O)=O)[C@@H](O)C2)sc1Cl` (single isomer, unassigned) [I-102b, [(1R,2S,4R)-4-{[5-({5-chloro-4-[(1R)-1-(3-chlorophenyl)-1-hydroxyethyl]-2-thienyl}carbonyl)pyrimidin-4-yl]amino}-2-hydroxycyclopentyl]methyl sulfamate or [(1R,2S,4R)-4-{[5-({5-chloro-4-[(1S)-1-(3-chlorophenyl)-1-hydroxyethyl]-2-thienyl}carbonyl)pyrimidin-4-yl]amino}-2-hydroxycyclopentyl]methyl sulfamate], the “Percent Inhibition” value (Concentration 0.111 μM) was 97 and the IC50 (class symbols A/B/C) was under 10 nM.
With `Cc1sc(C(=O)c2cncnc2N[C@@H]2C[C@H](COS(N)(=O)=O)[C@@H](O)C2)cc1[C@@H]1OCCc2ccc(CN(C)C)cc21` (mixture of isomers) [I-329, [(1R,2S,4R)-4-({5-[(4-{(1R)-7-[(dimethylamino)methyl]-3,4-dihydro-1H-isochromen-1-yl}-5-methyl-2-thienyl)carbonyl]pyrimidin-4-yl}amino)-2-hydroxycyclopentyl]methyl sulfamate and [(1R,2S,4R)-4-({5-[(4-{(1S)-7-[(dimethylamino)methyl]-3,4-dihydro-1H-isochromen-1-yl}-5-methyl-2-thienyl)carbonyl]pyrimidin-4-yl}amino)-2-hydroxycyclopentyl]methyl sulfamate] the “Percent Inhibition” value [1] was 36% and the IC50 [2] was 100 to 1000 nM.
`Cc1sc(C(=O)c2cncnc2N[C@@H]2C[C@H](COS(N)(=O)=O)[C@@H](O)C2)cc1Cc1cccc(Cl)c1` [I-51, {(1R,2S,4R)-4-[(5-{[4-(3-chlorobenzyl)-5-methyl-2-thienyl]carbonyl}pyrimidin-4-yl)amino]-2-hydroxycyclopentyl}methyl sulfamate] gave an inhibition at 0.111 µM (Concentration 0.111 μM) of 100% and an IC50 (class symbols A/B/C) of under 10 nM.
In the case of `CC(=O)c1coc(C(=O)c2cncnc2N[C@@H]2C[C@H](COS(N)(=O)=O)[C@@H](O)C2)c1` [I-234, [(1R,2S,4R)-4-{[5-(4-Acetyl-2-furoyl)pyrimidin-4-yl]amino}-2-hydroxycyclopentyl]methyl sulfamate], the inhibition at 0.111 µM (Concentration 0.111 μM) is reported as 20% and the IC50 (class symbols A/B/C) is reported as 100 to 1000 nM.
In the case of `NS(=O)(=O)OC[C@H]1C[C@@H](Nc2ncncc2C(=O)c2cc([C@@H]3OCCc4ccc(Cl)cc43)c(Cl)s2)C[C@@H]1O` (single isomer, unassigned) [I-282a, [(1R,2S,4R)-4-{[5-({5-chloro-4-[(1R)-7-chloro-3,4-dihydro-1H-isochromen-1-yl]-2-thienyl}carbonyl)pyrimidin-4-yl]amino}-2-hydroxycyclopentyl]methyl sulfamate or [(1R,2S,4R)-4-{[5-({5-chloro-4-[(1S)-7-chloro-3,4-dihydro-1H-isochromen-1-yl]-2-thienyl}carbonyl)pyrimidin-4-yl]amino}-2-hydroxycyclopentyl]methyl sulfamate], the “Percent Inhibition” value [1] is reported as 37% and the IC50 [2] is reported as 100 to 1000 nM.
In the case of `Cc1sc(C(=O)c2cncnc2N[C@@H]2C[C@H](COS(N)(=O)=O)[C@@H](O)C2)cc1Cn1ccc(C#N)c1` [I-194, [(1R,2S,4R)-4-{[5-({4-[(3-cyano-1H-pyrrol-1-yl)methyl]-5-methyl-2-thienyl}carbonyl)pyrimidin-4-yl]amino}-2-hydroxycyclopentyl]methyl sulfamate], the inhibition at 0.111 µM (Concentration 0.111 μM) is reported as 66% and the IC50 (class symbols A/B/C) is reported as 10 to 100 nM.
In the case of `Cc1sc(C(=O)c2cncnc2N[C@@H]2C[C@H](COS(N)(=O)=O)[C@@H](O)[C@H]2O)cc1[C@@H]1NCCc2ccc(Br)cc21` (single isomer, unassigned) [I-247a, [(1R,2R,3S,4R)-4-{[5-({4-[(1R)-7-bromo-1,2,3,4-tetrahydroisoquinolin-1-yl]-5-methyl-2-thienyl}carbonyl)pyrimidin-4-yl]amino}-2,3-dihydroxycyclopentyl]methyl sulfamate or [(1R,2R,3S,4R)-4-{[5-({4-[(1S)-7-bromo-1,2,3,4-tetrahydroisoquinolin-1-yl]-5-methyl-2-thienyl}carbonyl)pyrimidin-4-yl]amino}-2,3-dihydroxycyclopentyl]methyl sulfamate], the “Percent Inhibition” value (Concentration 0.111 μM) is reported as 100 and the IC50 (class symbols A/B/C) is reported as under 10 nM.
In the case of `Cc1ccc2c(c1)[C@H](c1cc(C(=O)c3cncnc3N[C@@H]3C[C@H](COS(N)(=O)=O)[C@@H](O)C3)sc1C)OCC2` (mixture of isomers) [I-347, [(1R,2S,4R)-2-hydroxy-4-{[5-({5-methyl-4-[(1R)-7-methyl-3,4-dihydro-1H-isochromen-1-yl]-2-thienyl}carbonyl)pyrimidin-4-yl]amino}cyclopentyl]methyl sulfamate and [(1R,2S,4R)-2-hydroxy-4-{[5-({5-methyl-4-[(1S)-7-methyl-3,4-dihydro-1H-isochromen-1-yl]-2-thienyl}carbonyl)pyrimidin-4-yl]amino}cyclopentyl]methyl sulfamate], the “Percent Inhibition” value [1] is reported as 97% and the IC50 [2] is reported as under 10 nM.
With `Cc1sc(C(=O)c2cncnc2N[C@@H]2C[C@H](COS(N)(=O)=O)[C@@H](OC(=O)[C@H](C)N)C2)cc1[C@@H]1OCCc2ccc(Cl)cc21` [I-362, [(1S,2R,4R)-4-[5-[4-[(1R)-7-chloroisochroman-1-yl]-5-methyl-thiophene-2-carbonyl]pyrimidin-4-yl]amino]-2-(sulfamoyloxymethyl)cyclopentyl] (2S)-2-aminopropanoate; hydrochloride] the “Percent Inhibition” value [1] was 91% and the IC50 [2] was 10 to 100 nM.
